Data taken from the supplement of paper PMC11061612.

Legend:
MK-2206 = compound: NC1(c2ccc(-c3nc4ccn5c(=O)[nH]nc5c4cc3-c3ccccc3)cc2)CCC1 [MK-2206]; settings: max 10 µM
In short: (§1)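 Cancer cell lines were seeded into 1536-well plates in 7.5 μl medium (DMEM/F12 or RPMI, 10% FBS), held 24 hours at 37°C and 5% CO2, and dosed for 72 hours with final DMSO typically 0.2%. Luminescence from CellTiter-Glo 2.0, scaled between blank-well and DMSO-well means, served as viability. The single-agent IC50 was obtained from dose-response fits with a non-linear mixed effects model, each fit being a two-parameter logistic curve.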

AZD2811 = compound: CCN(CCO)CCCOc1ccc2c(Nc3cc(CC(=O)Nc4cccc(F)c4)[nH]n3)ncnc2c1 [AZD2811]; settings: max 1 µM
In short: as §1

AZD5991 = compound: Cc1c2c(nn1C)CSCc1cc(n(C)n1)CSc1cc(c3ccccc3c1)OCCCc1c(C(=O)O)n(C)c3c-2c(Cl)ccc13 [AZD5991]; settings: max 1 µM
In short: as §1

Gefitinib = compound: COc1cc2ncnc(Nc3ccc(F)c(Cl)c3)c2cc1OCCCN1CCOCC1 [Gefitinib]; settings: max 10 µM
In short: as §1

AZD5153 = compound: COc1nnc2ccc(N3CCC(c4ccc(OCCN5CCN(C)C(=O)[C@H]5C)cc4)CC3)nn12 [AZD5153]; settings: max 1 µM
In short: as §1

SN-38 = compound: CCc1c2c(nc3ccc(O)cc13)-c1cc3c(c(=O)n1C2)COC(=O)[C@]3(O)CC [SN-38]; settings: max 0.3 µM
In short: as §1

Lapatinib = compound: CS(=O)(=O)CCNCc1ccc(-c2ccc3ncnc(Nc4ccc(OCc5cccc(F)c5)c(Cl)c4)c3c2)o1 [Lapatinib]; settings: max 10 µM
In short: as §1

Prexasertib = compound: COc1cccc(OCCCN)c1-c1cc(Nc2cnc(C#N)cn2)n[nH]1 [Prexasertib]; settings: max 1 µM
In short: as §1

Doxorubicin = compound: COc1cccc2c1C(=O)c1c(O)c3c(c(O)c1C2=O)C[C@@](O)(C(=O)CO)C[C@@H]3O[C@H]1C[C@H](N)[C@H](O)[C@H](C)O1 [Doxorubicin]; settings: max 1 µM
In short: as §1

AZD7648 = compound: Cc1cc2ncnn2cc1Nc1ncc2c(n1)n(C1CCOCC1)c(=O)n2C [AZD7648]; settings: max 10 µM
In short: as §1

5-Fluorouracil = compound: O=c1[nH]cc(F)c(=O)[nH]1 [5-Fluorouracil]; settings: max 20 µM
In short: as §1

SRA737 = compound: N#Cc1cnc(Nc2cc(NC[C@H]3CNCCO3)c(C(F)(F)F)cn2)cn1 [SRA737]; settings: max 10 µM
In short: as §1

[1] = compound: O=C(Nc1ccc2[nH]nc(-c3ccncc3)c2c1)[C@@H]1CCN(CC(=O)N2CCN(c3ccc(-c4ncccn4)cc3)CC2)C1; settings: max 5 µM
In short: as §1

Gemcitabine = compound: Nc1ccn([C@@H]2O[C@H](CO)[C@@H](O)C2(F)F)c(=O)n1 [Gemcitabine]; settings: max 0.3 µM
In short: as §1

Venetoclax = compound: CC1(C)CCC(CN2CCN(c3ccc(C(=O)NS(=O)(=O)c4ccc(NCC5CCOCC5)c([N+](=O)[O-])c4)c(Oc4cnc5[nH]ccc5c4)c3)CC2)=C(c2ccc(Cl)cc2)C1 [Venetoclax]; settings: max 1 µM
In short: as §1

Dasatinib = compound: CC1=C(C(=CC=C1)Cl)NC(=O)C2=CN=C(S2)NC3=CC(=NC(=N3)C)N4CCN(CC4)CCO [Dasatinib]; settings: max 2 µM
In short: as §1

Crizotinib = compound: C[C@@H](Oc1cc(-c2cnn(C3CCNCC3)c2)cnc1N)c1c(Cl)ccc(F)c1Cl [Crizotinib]; settings: max 10 µM
In short: as §1

Paclitaxel = compound: CC(=O)O[C@H]1C(=O)[C@@]2(C)[C@H]([C@H](OC(=O)c3ccccc3)[C@]3(O)C[C@H](OC(=O)[C@H](O)[C@@H](NC(=O)c4ccccc4)c4ccccc4)C(C)=C1C3(C)C)[C@]1(OC(C)=O)CO[C@@H]1C[C@@H]2O [Paclitaxel]; settings: max 3 µM
In short: as §1

AZD6738 = compound: C[C@@H]1COCCN1C2=NC(=NC(=C2)C3(CC3)[S@](=N)(=O)C)C4=C5C=CNC5=NC=C4 [AZD6738]; settings: max 10 µM
In short: as §1

Taselisib = compound: Cc1nc(-c2cn3c(n2)-c2ccc(-c4cnn(C(C)(C)C(N)=O)c4)cc2OCC3)n(C(C)C)n1 [Taselisib]; settings: max 10 µM
In short: as §1

Etoposide = compound: COc1cc([C@@H]2c3cc4c(cc3[C@@H](O[C@@H]3O[C@@H]5CO[C@@H](C)O[C@H]5[C@H](O)[C@H]3O)[C@H]3COC(=O)[C@H]23)OCO4)cc(OC)c1O [Etoposide]; settings: max 10 µM
In short: as §1

AZD4320 = compound: CN(CC[C@H](CSC1=CC=CC=C1)NC2=C(C=C(C=C2)S(=O)(=O)NC(=O)C3=CC=C(C=C3)N4CCC(CC4)[C@H](C5=CC=CC=C5C6=CC=C(C=C6)Cl)O)S(=O)(=O)C(F)(F)F)CCO [AZD4320]; settings: max 1 µM
In short: as §1

AZD0156 = compound: CN(C)CCCOc1ccc(-c2ccc3ncc4c(c3c2)n(C2CCOCC2)c(=O)n4C)cn1 [AZD0156]; settings: max 3 µM
In short: as §1

Savolitinib = compound: C[C@@H](c1ccc2nccn2c1)n1nnc2ncc(-c3cnn(C)c3)nc21 [Savolitinib]; settings: max 1 µM
In short: as §1

Selumetinib = compound: Cn1cnc2c(F)c(Nc3ccc(Br)cc3Cl)c(C(=O)NOCCO)cc21 [Selumetinib]; settings: max 10 µM
In short: as §1

AZD5363 = compound: C1CN(CCC1(C(=O)N[C@@H](CCO)C2=CC=C(C=C2)Cl)N)C3=NC=NC4=C3C=CN4 [AZD5363]; settings: max 10 µM
In short: as §1

Alisertib = compound: COc1cc(Nc2ncc3c(n2)-c2ccc(Cl)cc2C(c2c(F)cccc2OC)=NC3)ccc1C(=O)O [Alisertib]; settings: max 10 µM
In short: as §1

SG3199 = compound: CC1=CN2[C@@H](C1)C=NC3=CC(=C(C=C3C2=O)OC)OCCCCCOC4=C(C=C5C(=C4)N=C[C@@H]6CC(=CN6C5=O)C)OC [SG3199]; settings: max 0.001 µM
In short: as §1

AZD1390 = compound: CC(C)n1c(=O)n(C)c2cnc3cc(F)c(-c4ccc(OCCCN5CCCCC5)nc4)cc3c21 [AZD1390]; settings: max 0.3 µM
In short: as §1

Trametinib = compound: CC(=O)Nc1cccc(-n2c(=O)n(C3CC3)c(=O)c3c(Nc4ccc(I)cc4F)n(C)c(=O)c(C)c32)c1 [Trametinib]; settings: max 1 µM
In short: as §1

Palbociclib = compound: CC(=O)c1c(C)c2cnc(Nc3ccc(N4CCNCC4)cn3)nc2n(C2CCCC2)c1=O [Palbociclib]; settings: max 10 µM
In short: as §1

AZD8186 = compound: C[C@@H](Nc1cc(F)cc(F)c1)c1cc(C(=O)N(C)C)cc2c(=O)cc(N3CCOCC3)oc12 [AZD8186]; settings: max 10 µM
In short: as §1

Carboplatin = compound: C1CC(C1)(C(=O)[O-])C(=O)[O-].N.N.[Pt+2] [Carboplatin]; settings: max 10 µM
In short: as §1

AZD1775 = compound: C=CCn1c(=O)c2cnc(Nc3ccc(N4CCN(C)CC4)cc3)nc2n1-c1cccc(C(C)(C)O)n1 [AZD1775]; settings: max 3 µM
In short: as §1

Olaparib = compound: O=C(c1cc(Cc2n[nH]c(=O)c3ccccc23)ccc1F)N1CCN(C(=O)C2CC2)CC1 [Olaparib]; settings: max 10 µM
In short: as §1

Cell Line | IC50, cell viability 72 h (MK-2206) | IC50, cell viability 72 h (AZD2811) | IC50, cell viability 72 h (AZD5991) | IC50, cell viability 72 h (Gefitinib) | IC50, cell viability 72 h (AZD5153) | IC50, cell viability 72 h (SN-38) | IC50, cell viability 72 h (Lapatinib) | IC50, cell viability 72 h (Prexasertib) | IC50, cell viability 72 h (Doxorubicin) | IC50, cell viability 72 h (AZD7648) | IC50, cell viability 72 h (5-Fluorouracil) | IC50, cell viability 72 h (SRA737) | IC50, cell viability 72 h [1] | IC50, cell viability 72 h (Gemcitabine) | IC50, cell viability 72 h (Venetoclax) | IC50, cell viability 72 h (Dasatinib) | IC50, cell viability 72 h (Crizotinib) | IC50, cell viability 72 h (Paclitaxel) | IC50, cell viability 72 h (AZD6738) | IC50, cell viability 72 h (Taselisib) | IC50, cell viability 72 h (Etoposide) | IC50, cell viability 72 h (AZD4320) | IC50, cell viability 72 h (AZD0156) | IC50, cell viability 72 h (Savolitinib) | IC50, cell viability 72 h (Selumetinib) | IC50, cell viability 72 h (AZD5363) | IC50, cell viability 72 h (Alisertib) | IC50, cell viability 72 h (SG3199) | IC50, cell viability 72 h (AZD1390) | IC50, cell viability 72 h (Trametinib) | IC50, cell viability 72 h (Palbociclib) | IC50, cell viability 72 h (AZD8186) | IC50, cell viability 72 h (Carboplatin) | IC50, cell viability 72 h (AZD1775) | IC50, cell viability 72 h (Olaparib)
COR-L279 (Small Cell Lung Carcinoma) | 3.15 µM | 0.093 µM | > 1 µM | > 10 µM | 0.178 µM | 0.00169 µM | 6.64 µM | 0.0979 µM | 0.0421 µM | > 10 µM | > 20 µM | > 10 µM | > 5 µM | 0.0346 µM | > 1 µM | > 2 µM | 3.71 µM | < 0.003 µM | 7.38 µM | 2.13 µM | 0.843 µM | 0.198 µM | > 3 µM | > 1 µM | > 10 µM | 9.25 µM | 0.952 µM | > 0.001 µM | > 0.3 µM | > 1 µM | > 10 µM | 7.51 µM | > 10 µM | 1.6 µM | 3.43 µM
CW-2 (Colorectal Carcinoma) | > 10 µM | > 1 µM | > 1 µM | > 10 µM | 0.861 µM | 0.15 µM | > 10 µM | > 1 µM | > 1 µM | > 10 µM | > 20 µM | > 10 µM | > 5 µM | 0.246 µM | > 1 µM | > 2 µM | > 10 µM | 1.59 µM | > 10 µM | > 10 µM | > 10 µM | > 1 µM | > 3 µM | > 1 µM | > 10 µM | > 10 µM | > 10 µM | > 0.001 µM | > 0.3 µM | > 1 µM | > 10 µM | > 10 µM | > 10 µM | 2.72 µM | > 10 µM
